Structures are written as SMILES.

The ED50 is the dose at which the effect has come halfway, by size or by number of responders. A lower ED50 goes with an effect at a small dose.

In this assay the test system is Cavia porcellus. Kind of assay: Effective dose for inhibition of gas trapping in vivo in a guinea pig model of LTB4-induced airway obstruction. The class given is functional.

Take `CCOc1cc(CC)c(OCCCCCC(C)(C)c2nn[n-]n2)cc1O.[Na+]`: the 50% effect level (ED50) was put at a dose of 0.3 mg/kg.

(Values after ChEMBL document CHEMBL1126385, “-alkoxyphenol leukotriene B4 receptor antagonists” (Bioorg Med Chem Lett, 1992).)
